According to ChEMBL document CHEMBL4507264, “Data for DCP probe BAY-7598” (2021):

Experiments:
[1] = tested on: Epidermal growth factor receptor (Homo sapiens), P00533 [L858R]; settings: Compound concentration 1000.0 nM
[2] = molecular target: LIM domain kinase 1 (Homo sapiens) (UniProt P53667); settings: Compound concentration 1000.0 nM
[3] = molecular target: Serine/threonine-protein kinase DCLK1 (Homo sapiens) (UniProt O15075); settings: Compound concentration 1000.0 nM
[4] = molecular target: Serine/threonine-protein kinase NIM1 (Homo sapiens) (UniProt Q8IY84); settings: Compound concentration 1000.0 nM
Serine/threonine-protein kinase NIM1 (Homo sapiens), sequence (Q8IY84 whole entry): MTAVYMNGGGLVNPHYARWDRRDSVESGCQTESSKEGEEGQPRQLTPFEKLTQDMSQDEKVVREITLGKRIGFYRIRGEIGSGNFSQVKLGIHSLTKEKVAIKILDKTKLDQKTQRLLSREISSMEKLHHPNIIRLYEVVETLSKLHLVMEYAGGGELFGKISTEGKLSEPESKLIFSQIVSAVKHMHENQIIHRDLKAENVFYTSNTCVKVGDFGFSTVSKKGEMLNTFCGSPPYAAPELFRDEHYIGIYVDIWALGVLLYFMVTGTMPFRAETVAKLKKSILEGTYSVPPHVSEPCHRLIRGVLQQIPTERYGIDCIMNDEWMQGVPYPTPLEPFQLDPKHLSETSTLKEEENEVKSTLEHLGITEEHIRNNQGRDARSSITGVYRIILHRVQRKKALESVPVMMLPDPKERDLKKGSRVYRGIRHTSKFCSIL

[5] = molecular target: 5-hydroxytryptamine receptor 5A (Homo sapiens) (UniProt P47898); settings: Compound concentration 10.0 uM
[6] = molecular target: Ephrin type-A receptor 4 (Homo sapiens) (UniProt P54764); settings: Compound concentration 1000.0 nM
Ephrin type-A receptor 4 (Homo sapiens), sequence (P54764 whole entry): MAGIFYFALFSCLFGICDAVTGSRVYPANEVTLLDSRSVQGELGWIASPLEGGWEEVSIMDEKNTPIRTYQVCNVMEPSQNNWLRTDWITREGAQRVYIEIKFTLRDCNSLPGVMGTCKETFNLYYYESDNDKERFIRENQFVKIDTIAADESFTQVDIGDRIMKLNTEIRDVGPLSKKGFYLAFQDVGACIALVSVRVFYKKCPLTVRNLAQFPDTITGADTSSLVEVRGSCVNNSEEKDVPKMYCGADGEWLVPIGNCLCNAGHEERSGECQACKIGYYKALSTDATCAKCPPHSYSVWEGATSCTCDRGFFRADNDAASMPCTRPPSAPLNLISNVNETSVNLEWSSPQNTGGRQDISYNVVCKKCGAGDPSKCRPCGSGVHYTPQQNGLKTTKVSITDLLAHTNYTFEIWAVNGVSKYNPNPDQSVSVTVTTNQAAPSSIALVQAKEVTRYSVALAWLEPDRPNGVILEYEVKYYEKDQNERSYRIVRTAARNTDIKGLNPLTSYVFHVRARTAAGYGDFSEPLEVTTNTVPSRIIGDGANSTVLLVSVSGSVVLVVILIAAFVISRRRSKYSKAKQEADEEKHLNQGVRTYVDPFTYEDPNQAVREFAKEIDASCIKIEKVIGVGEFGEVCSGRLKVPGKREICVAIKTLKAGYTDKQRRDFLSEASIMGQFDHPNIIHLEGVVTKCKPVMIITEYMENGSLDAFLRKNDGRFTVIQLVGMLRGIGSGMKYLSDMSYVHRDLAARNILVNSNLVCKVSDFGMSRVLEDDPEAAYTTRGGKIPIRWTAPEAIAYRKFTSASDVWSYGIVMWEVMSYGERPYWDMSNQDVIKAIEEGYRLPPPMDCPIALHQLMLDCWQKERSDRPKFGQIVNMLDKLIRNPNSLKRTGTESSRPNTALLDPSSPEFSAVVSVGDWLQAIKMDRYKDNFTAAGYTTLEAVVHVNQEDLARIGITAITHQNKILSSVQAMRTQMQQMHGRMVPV

[7] = molecular target: Serine/threonine-protein kinase 17B (Homo sapiens) (UniProt O94768); settings: Compound concentration 1000.0 nM
Serine/threonine-protein kinase 17B (Homo sapiens), sequence (O94768 whole entry): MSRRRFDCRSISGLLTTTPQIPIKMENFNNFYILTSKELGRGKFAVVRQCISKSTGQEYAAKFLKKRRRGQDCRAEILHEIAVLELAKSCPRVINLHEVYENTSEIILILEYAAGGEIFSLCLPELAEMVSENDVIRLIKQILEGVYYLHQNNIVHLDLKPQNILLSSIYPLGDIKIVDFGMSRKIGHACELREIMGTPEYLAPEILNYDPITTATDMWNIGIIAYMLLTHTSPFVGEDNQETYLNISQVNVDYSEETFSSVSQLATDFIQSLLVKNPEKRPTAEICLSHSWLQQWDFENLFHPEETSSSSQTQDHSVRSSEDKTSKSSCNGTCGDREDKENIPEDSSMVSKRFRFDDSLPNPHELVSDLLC

[8] = molecular target: Mitogen-activated protein kinase kinase kinase kinase 1 (Homo sapiens) (UniProt Q92918); settings: Compound concentration 1000.0 nM
Mitogen-activated protein kinase kinase kinase kinase 1 (Homo sapiens), sequence (Q92918 whole entry, looked up): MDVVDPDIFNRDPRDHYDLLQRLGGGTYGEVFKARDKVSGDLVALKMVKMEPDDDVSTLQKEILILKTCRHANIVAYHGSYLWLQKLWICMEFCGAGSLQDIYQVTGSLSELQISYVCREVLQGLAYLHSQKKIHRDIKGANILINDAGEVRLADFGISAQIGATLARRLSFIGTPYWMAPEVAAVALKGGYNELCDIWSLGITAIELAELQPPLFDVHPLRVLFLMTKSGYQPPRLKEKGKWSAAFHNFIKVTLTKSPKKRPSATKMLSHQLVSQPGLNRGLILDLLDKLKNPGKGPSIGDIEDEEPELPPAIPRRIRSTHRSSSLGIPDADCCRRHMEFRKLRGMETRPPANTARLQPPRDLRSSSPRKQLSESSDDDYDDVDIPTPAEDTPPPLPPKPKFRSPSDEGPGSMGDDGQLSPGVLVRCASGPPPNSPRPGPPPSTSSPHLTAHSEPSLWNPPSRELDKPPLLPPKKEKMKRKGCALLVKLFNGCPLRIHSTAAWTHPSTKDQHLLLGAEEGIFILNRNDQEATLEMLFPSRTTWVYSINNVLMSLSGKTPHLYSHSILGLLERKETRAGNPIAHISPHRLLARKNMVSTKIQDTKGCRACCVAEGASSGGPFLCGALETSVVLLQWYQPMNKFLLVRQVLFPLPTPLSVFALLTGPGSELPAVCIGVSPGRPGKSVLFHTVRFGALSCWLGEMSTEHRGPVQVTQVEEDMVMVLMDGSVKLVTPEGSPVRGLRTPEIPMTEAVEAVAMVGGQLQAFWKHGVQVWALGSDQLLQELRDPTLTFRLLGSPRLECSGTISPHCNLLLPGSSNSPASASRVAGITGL

[9] = molecular target: 5-hydroxytryptamine receptor 2B (Homo sapiens) (UniProt P41595); settings: Compound concentration 10.0 uM
5-hydroxytryptamine receptor 2B (Homo sapiens), sequence (P41595 whole entry): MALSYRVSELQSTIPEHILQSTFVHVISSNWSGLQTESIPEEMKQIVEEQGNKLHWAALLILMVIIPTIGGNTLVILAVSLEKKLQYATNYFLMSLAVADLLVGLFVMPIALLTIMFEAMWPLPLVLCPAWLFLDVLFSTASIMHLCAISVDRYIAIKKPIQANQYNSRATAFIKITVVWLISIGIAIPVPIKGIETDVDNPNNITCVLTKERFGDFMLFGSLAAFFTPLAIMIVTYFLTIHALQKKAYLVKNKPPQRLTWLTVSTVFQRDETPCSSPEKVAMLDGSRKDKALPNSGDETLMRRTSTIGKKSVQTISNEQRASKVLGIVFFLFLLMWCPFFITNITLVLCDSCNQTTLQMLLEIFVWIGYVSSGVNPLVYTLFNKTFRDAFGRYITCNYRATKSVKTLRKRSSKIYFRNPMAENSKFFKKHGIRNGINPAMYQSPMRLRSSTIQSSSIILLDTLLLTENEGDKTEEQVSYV

[10] = molecular target: Casein kinase II subunit alpha' (Homo sapiens) (UniProt P19784); settings: Compound concentration 1000.0 nM
[11] = molecular target: T1, Alpha-1D adrenergic receptor (Homo sapiens) (UniProt P25100); experiment: Inhibition of Adrenergic alpha1D at 10 µM in the Eurofins-Panlabs radioligand binding assay (Eurofins_assay_203400); settings: Compound concentration 10.0 uM
T1 sequence (whole entry): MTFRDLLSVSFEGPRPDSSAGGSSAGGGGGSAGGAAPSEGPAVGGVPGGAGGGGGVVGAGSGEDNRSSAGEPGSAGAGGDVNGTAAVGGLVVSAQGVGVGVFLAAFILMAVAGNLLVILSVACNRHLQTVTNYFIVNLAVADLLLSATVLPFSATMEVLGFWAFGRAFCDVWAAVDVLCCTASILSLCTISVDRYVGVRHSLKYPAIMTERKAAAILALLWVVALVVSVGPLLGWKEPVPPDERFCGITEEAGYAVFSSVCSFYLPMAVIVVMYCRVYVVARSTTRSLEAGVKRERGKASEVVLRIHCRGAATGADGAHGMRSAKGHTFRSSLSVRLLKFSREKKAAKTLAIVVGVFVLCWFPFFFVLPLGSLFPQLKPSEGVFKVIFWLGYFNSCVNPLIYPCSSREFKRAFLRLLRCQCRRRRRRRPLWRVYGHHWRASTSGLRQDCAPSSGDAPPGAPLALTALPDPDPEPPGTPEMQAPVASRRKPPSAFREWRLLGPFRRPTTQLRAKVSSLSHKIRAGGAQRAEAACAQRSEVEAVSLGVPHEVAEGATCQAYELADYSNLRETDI

Homo sapiens = species: Homo sapiens; experiment: Inhibition of Nicotinic Acetylcholine at compound concentration of 10.0 uM in the Eurofins-Panlabs radioligand binding assay (Eurofins_assay_258590); type: protein-complex assay; settings: Compound concentration 10.0 uM
[12] = molecular target: Sigma non-opioid intracellular receptor 1 (Homo sapiens) (UniProt Q99720); experiment: Inhibition of Sigma 1 at 10 µM in the Eurofins-Panlabs radioligand binding assay (Eurofins_assay_278110); parameters: ligand concentration 8 nM; settings: Compound concentration 10.0 uM
Sigma non-opioid intracellular receptor 1 (Homo sapiens), sequence (Q99720 whole entry): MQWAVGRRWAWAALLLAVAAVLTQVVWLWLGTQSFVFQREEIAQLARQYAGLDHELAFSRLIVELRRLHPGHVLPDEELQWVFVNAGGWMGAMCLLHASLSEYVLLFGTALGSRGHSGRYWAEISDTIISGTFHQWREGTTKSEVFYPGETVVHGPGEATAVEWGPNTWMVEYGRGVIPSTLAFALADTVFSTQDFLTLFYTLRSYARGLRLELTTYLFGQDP

[13] = molecular target: Delta-type opioid receptor (Homo sapiens) (UniProt P41143); settings: Compound concentration 10.0 uM
[14] = molecular target: Sodium-dependent serotonin transporter (Homo sapiens) (UniProt P31645); settings: Compound concentration 10.0 uM
[15] = molecular target: Mu-type opioid receptor (Homo sapiens) (UniProt P35372); settings: Compound concentration 10.0 uM
[16] = molecular target: Melatonin receptor type 1A (Homo sapiens) (UniProt P48039); experiment: Inhibition of Melatonin MT1 at 10 µM in the Eurofins-Panlabs radioligand binding assay (Eurofins_assay_251600); parameters: ligand concentration 0.05 nM; settings: Compound concentration 10.0 uM
[17] = molecular target: Adenosine receptor A3 (Homo sapiens) (UniProt P0DMS8); settings: Compound concentration 10.0 uM
[18] = molecular target: D(2) dopamine receptor (Homo sapiens) (UniProt P14416); settings: Compound concentration 10.0 uM
Rattus norvegicus = species: Rattus norvegicus; experiment: Inhibition of Glutamate, NMDA, Phencyclidine at 10 µM in the Eurofins-Panlabs radioligand binding assay (Eurofins_assay_233000); type: protein-complex assay; settings: Compound concentration 10.0 uM
[19] = molecular target: D(3) dopamine receptor (Homo sapiens) (UniProt P35462); settings: Compound concentration 10.0 uM
[20] = molecular target: Estrogen receptor (Homo sapiens) (UniProt P03372); settings: Compound concentration 10.0 uM
[21] = molecular target: B2 bradykinin receptor (Homo sapiens) (UniProt P30411); experiment: Bradykinin B2 Eurofins-Panlabs radioligand binding assay; settings: Compound concentration 10.0 uM
[22] = molecular target: Histamine H3 receptor (Homo sapiens) (UniProt Q9Y5N1); settings: Compound concentration 10.0 uM
[23] = molecular target: Endothelin-1 receptor (Homo sapiens) (UniProt P25101); settings: Compound concentration 10.0 uM
[24] = molecular target: Platelet-activating factor receptor (Homo sapiens) (UniProt P25105); experiment: Inhibition of Platelet Activating Factor (PAF) at 10 µM in the Eurofins-Panlabs radioligand binding assay (Eurofins_assay_265010); settings: Compound concentration 10.0 uM
[25] = molecular target: Sigma non-opioid intracellular receptor 1 (Homo sapiens) (UniProt Q99720); experiment: Sigma 1 Eurofins-Panlabs radioligand binding assay; parameters: ligand concentration 8 nM; settings: Compound concentration 10.0 uM
[26] = molecular target: Neuropeptide Y receptor type 2 (Homo sapiens) (UniProt P49146); experiment: Inhibition of Neuropeptide Y Y2 at 10 µM in the Eurofins-Panlabs radioligand binding assay (Eurofins_assay_257110); settings: Compound concentration 10.0 uM
[27] = molecular target: Beta-2 adrenergic receptor (Homo sapiens) (UniProt P07550); settings: Compound concentration 10.0 uM
[28] = molecular target: Cysteinyl leukotriene receptor 1 (Homo sapiens) (UniProt Q9Y271); experiment: Inhibition of Leukotriene, Cysteinyl CysLT1 at 10 µM in the Eurofins-Panlabs radioligand binding assay (Eurofins_assay_250460); parameters: ligand concentration 0.3 nM, non-specific ligand with concentration 0.3 µM Leukotriene D4, incubation time 30 min, incubation temperature 25 °C; settings: Compound concentration 10.0 uM
[29] = molecular target: Voltage-dependent N-type calcium channel subunit alpha-1B (Homo sapiens) (UniProt Q00975); experiment: Inhibition of Calcium Channel N-Type at 10 µM in the Eurofins-Panlabs radioligand binding assay (Eurofins_assay_216000); settings: Rattus norvegicus; Compound concentration 10.0 uM
[30] = molecular target: ATP-sensitive inward rectifier potassium channel 11 (Cricetulus griseus) (UniProt A0A3L7HHE1); experiment: Inhibition of Potassium Channel [KATP] at 10 µM in the Eurofins-Panlabs radioligand binding assay (Eurofins_assay_265600); settings: Cricetinae; Compound concentration 10.0 uM
[31] = molecular target: Prostaglandin E2 receptor EP4 subtype (Homo sapiens) (UniProt P35408); experiment: Inhibition of Prostanoid EP4 at 10 µM in the Eurofins-Panlabs radioligand binding assay (Eurofins_assay_268420); parameters: ligand concentration 1 nM; settings: Compound concentration 10.0 uM

Serine/threonine-protein kinase DCLK1 (Homo sapiens), sequence (O15075 whole entry): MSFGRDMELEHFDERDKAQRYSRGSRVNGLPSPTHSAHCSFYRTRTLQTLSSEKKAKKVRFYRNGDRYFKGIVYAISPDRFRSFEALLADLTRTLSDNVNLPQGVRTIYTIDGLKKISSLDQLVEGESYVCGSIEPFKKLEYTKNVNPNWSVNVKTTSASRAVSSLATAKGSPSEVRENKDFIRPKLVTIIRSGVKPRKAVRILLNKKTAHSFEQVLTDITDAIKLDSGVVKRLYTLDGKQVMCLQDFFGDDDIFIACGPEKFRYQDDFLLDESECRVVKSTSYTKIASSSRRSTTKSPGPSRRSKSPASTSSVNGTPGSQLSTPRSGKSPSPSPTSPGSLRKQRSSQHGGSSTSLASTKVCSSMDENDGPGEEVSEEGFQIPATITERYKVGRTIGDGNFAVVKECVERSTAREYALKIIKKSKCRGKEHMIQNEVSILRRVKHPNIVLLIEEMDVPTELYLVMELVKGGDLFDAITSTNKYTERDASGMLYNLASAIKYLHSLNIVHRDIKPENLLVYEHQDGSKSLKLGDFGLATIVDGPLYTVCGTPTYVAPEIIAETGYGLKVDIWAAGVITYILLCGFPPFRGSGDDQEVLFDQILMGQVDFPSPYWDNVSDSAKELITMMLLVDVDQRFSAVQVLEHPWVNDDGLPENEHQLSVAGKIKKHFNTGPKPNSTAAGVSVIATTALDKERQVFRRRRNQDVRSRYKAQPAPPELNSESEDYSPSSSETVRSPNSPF
LIM domain kinase 1 (Homo sapiens), sequence (P53667 whole entry, looked up, the tested form may be a part): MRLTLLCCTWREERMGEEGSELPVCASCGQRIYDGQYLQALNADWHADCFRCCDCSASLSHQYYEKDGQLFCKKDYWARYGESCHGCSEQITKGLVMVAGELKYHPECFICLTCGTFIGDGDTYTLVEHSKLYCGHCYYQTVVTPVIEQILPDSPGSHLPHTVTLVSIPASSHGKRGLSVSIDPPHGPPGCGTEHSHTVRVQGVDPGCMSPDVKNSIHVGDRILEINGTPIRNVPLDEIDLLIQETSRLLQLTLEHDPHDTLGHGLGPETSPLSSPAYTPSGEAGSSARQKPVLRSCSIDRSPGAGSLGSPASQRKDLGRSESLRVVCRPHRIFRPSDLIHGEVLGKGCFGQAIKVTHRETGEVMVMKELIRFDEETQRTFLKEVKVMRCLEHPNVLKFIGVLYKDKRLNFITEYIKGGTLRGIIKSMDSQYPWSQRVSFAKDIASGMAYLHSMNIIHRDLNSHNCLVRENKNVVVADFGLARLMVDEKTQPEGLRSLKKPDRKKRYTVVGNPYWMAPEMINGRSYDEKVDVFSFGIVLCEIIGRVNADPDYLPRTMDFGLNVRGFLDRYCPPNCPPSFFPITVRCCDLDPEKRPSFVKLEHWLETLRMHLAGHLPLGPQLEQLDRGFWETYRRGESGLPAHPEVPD

O=C(O)[C@@H]1[C@@H](Cn2nnc3ccccc3c2=O)CC[C@H]1C(=O)c1ccc(OCCC2CCOCC2)cc1 [BAY-694]
inactive: residual activity [1] 100% | residual activity [2] 100% | residual activity [3] 100% | residual activity [4] 73% | inhibition [5] 1.33% | residual activity [6] 92% | residual activity [7] 99% | residual activity [8] 91% | inhibition [9] 36.2% | residual activity [10] 88%

O=C(O)[C@H]1[C@H](Cn2nnc3ccccc3c2=O)CC[C@@H]1C(=O)c1ccc(OCCC2CCOCC2)cc1 [BAY-7598]
inactive: inhibition [11] -9% | residual activity [1] 95% | residual activity [2] 100% | inhibition (Homo sapiens) -1% | residual activity [3] 73% | inhibition [12] -7% | inhibition [13] 9% | inhibition [14] 9% | residual activity [4] 93% | inhibition [5] 6.91% | inhibition [15] -9.72% | residual activity [6] 90% | residual activity [7] 100% | inhibition [16] 2% | inhibition [17] 13% | inhibition [18] 2% | inhibition (Rattus norvegicus) 4% | inhibition [19] 12% | inhibition [20] 2% | inhibition [21] -10% | residual activity [8] 87% | inhibition [22] -6% | inhibition [23] 7% | inhibition [24] 6% | inhibition [25] 15% | inhibition [9] 22.8% | inhibition [26] 3% | inhibition [27] 4% | inhibition [28] 8% | inhibition [29] 6% | inhibition [30] 9% | inhibition [31] 19% | residual activity [10] 79%
